# Test results from patent publication US10160747B2, “Compounds and methods for kinase modulation, and indications therefor” (Plexxikon Inc., priority 2016, dated 2018).
# Experiments:
# FLT3-D835Y = biological target: T1, FLT3-D835Y (Homo sapiens, UniProt P36888, D835Y); assay: FLT3-D835Y recombinant enzyme kinase assay (AlphaScreen); assay type: biochemical; details: 8 pt, GMean
# T1 construct: purchased Invitrogen PV3967
# T1 sequence (P36888 27-993 D835Y): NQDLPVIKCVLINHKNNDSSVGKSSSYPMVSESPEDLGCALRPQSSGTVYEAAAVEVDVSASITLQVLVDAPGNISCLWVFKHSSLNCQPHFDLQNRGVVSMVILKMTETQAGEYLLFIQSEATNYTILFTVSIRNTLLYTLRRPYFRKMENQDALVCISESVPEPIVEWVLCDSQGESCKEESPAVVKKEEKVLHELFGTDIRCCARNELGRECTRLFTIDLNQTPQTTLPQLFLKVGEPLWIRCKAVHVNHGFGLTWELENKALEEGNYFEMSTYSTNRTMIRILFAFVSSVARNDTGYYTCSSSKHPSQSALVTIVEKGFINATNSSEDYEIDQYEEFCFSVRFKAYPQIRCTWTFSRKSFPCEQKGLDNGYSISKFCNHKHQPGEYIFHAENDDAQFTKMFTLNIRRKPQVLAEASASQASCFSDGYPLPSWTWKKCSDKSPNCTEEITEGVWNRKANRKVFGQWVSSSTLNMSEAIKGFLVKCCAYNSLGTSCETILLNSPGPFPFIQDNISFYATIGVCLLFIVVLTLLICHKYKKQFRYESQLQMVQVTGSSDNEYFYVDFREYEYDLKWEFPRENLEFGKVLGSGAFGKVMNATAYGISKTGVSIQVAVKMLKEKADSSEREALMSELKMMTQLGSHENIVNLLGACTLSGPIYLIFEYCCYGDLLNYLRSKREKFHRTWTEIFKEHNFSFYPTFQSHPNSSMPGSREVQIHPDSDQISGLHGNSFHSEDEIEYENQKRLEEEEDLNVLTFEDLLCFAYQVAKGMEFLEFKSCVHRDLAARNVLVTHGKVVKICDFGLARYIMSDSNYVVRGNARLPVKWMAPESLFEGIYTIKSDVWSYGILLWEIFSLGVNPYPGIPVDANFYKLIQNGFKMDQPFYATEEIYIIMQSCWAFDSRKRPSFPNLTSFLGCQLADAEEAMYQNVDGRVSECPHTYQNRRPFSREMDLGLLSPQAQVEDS
# Summary of the method: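 Recombinant kinase phosphorylates 30 nM biotinylated poly(Glu4-Tyr) peptide; ATP is 10 μM for FLT3-ITD and FLT3-D835Y, 100 μM for c-KIT. Phosphotyrosine detected by AlphaScreen (streptavidin donor, PY20 acceptor beads, 10 μg/mL), 580 nm signal after 680 nm excitation; IC50 from signal decrease.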
# [1] = tested on: MOLM-14 D835Y (endogenous FLT3 ITD and transfected FLT3 D835Y); assay: MOLM-14 D835Y cell proliferation assay (CellTiter-Glo); assay type: cell-based; details: Homo sapiens, MOLM-14, 72 h; 3 d growth, GMean
# Summary of the method: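 MOLM-14 derivatives carrying D835Y or F691L, selected under escalating AC220, were seeded at 1×10^4 cells/well and exposed to an 8-point 1:3 compound series (1 to 0.00046 μM, 0.2% DMSO final) for three days at 37° C., 5% CO2. CellTiter-Glo luminescence (ATP content) versus concentration gave IC50.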
SMILES,IC50 (FLT3-D835Y) [µM],IC50 [1] [µM]
"COc1ncc(NC(=O)Cc2ccc(-c3cnc4[nH]nc(N)c4c3)c(F)c2)cc1C(F)(F)F [Compound P-0203, 2-[4-(3-amino-1H-pyrazolo[3,4-b]pyridin-5-yl)-3-fluoro-phenyl]-N-[6-methoxy-5-(trifluoromethyl)-3-pyridyl]acetamide]",0.0001 to 10,0.0001 to 10
"Cn1cc(Nc2ncc(-c3ccc(CC(=O)Nc4cncc(C(F)(F)F)c4)cc3F)cn2)cn1 [Compound P-0205, 2-[3-fluoro-4-[2-[(1-methylpyrazol-4-yl)amino]pyrimidin-5-yl]phenyl]-N-[5-(trifluoromethyl)-3-pyridyl]acetamide]",0.0001 to 10,0.0001 to 10
"COc1ncc(NC(=O)Cc2ccc(-c3cnc4[nH]c(-c5ccnc(C#N)c5)cc4c3)cc2F)cc1C(F)(F)F [Compound P-0013, 2-[4-[2-(2-cyano-4-pyridyl)-1H-pyrrolo[2,3-b]pyridin-5-yl]-2-fluoro-phenyl]-N-[6-methoxy-5-(trifluoromethyl)-3-pyridyl]acetamide]",0.0001 to 10,0.0001 to 10
"O=C(Cc1ccc(-c2cnc(Nc3cnn(C(F)F)c3)nc2)cc1)Nc1cc(C(F)(F)F)ccn1 [Compound P-0023, 2-[4-[2-[[1-(difluoromethyl)pyrazol-4-yl]amino]pyrimidin-5-yl]phenyl]-N-[4-(trifluoromethyl)-2-pyridyl]acetamide]",0.0001 to 10,0.0001 to 10
"Cn1cnc(Nc2ncc(-c3ccc(CC(=O)Nc4cc(C(F)(F)F)ccn4)cc3F)cn2)c1 [Compound P-0018, 2-[3-fluoro-4-[2-[(1-methylimidazol-4-yl)amino]pyrimidin-5-yl]phenyl]-N-[4-(trifluoromethyl)-2-pyridyl]acetamide]",0.0001 to 10,0.0001 to 10
"COc1n[nH]c2ncc(-c3ccc(CC(=O)Nc4cnc(C)c(C(F)(F)F)c4)cc3)cc12 [Compound P-0218, 2-[4-(3-methoxy-1H-pyrazolo[3,4-b]pyridin-5-yl)phenyl]-N-[6-methyl-5-(trifluoromethyl)-3-pyridyl]acetamide]",0.0001 to 10,0.0001 to 10
"Cn1cnc(Nc2ncc(-c3cc(F)c(CC(=O)Nc4cc(C(F)(F)F)ccn4)cc3F)cn2)c1 [Compound P-0020, 2-[2,5-difluoro-4-[2-[(1-methylimidazol-4-yl)amino]pyrimidin-5-yl]phenyl]-N-[4-(trifluoromethyl)-2-pyridyl]acetamide]",0.0001 to 10,0.0001 to 10
"COCCn1cc(Nc2ncc(-c3ccc(CC(=O)Nc4cc(C(F)(F)F)ccn4)cc3)cn2)cn1 [Compound P-0222, 2-[4-[2-[[1-(2-methoxyethyl)pyrazol-4-yl]amino]pyrimidin-5-yl]phenyl]-N-[4-(trifluoromethyl)-2-pyridyl]acetamide]",0.0001 to 10,0.0001 to 10
"COc1ncc(NC(=O)Cc2ccc(-c3cnc(Nc4cnn(C)c4)nc3)c(F)c2)cc1C(F)(F)F [Compound P-0206, 2-[3-fluoro-4-[2-[(1-methylpyrazol-4-yl)amino]pyrimidin-5-yl]phenyl]-N-[6-methoxy-5-(trifluoromethyl)-3-pyridyl]acetamide]",0.0001 to 10,0.0001 to 10
"COc1ncc(NC(=O)Cc2ccc(-c3cnc4[nH]nc(OC)c4c3)cc2)cc1C(F)(F)F [Compound P-0212, 2-[4-(3-methoxy-1H-pyrazolo[3,4-b]pyridin-5-yl)phenyl]-N-[6-methoxy-5-(trifluoromethyl)-3-pyridyl]acetamide]",0.0001 to 10,0.0001 to 10

# Results, then the compound that gave them:
IC50 (FLT3-D835Y) [µM],IC50 [1] [µM],SMILES
0.0001 to 10,0.0001 to 10,"CCn1cc(Nc2ncc(-c3ccc(CC(=O)Nc4cnc(Cl)c(C(F)(F)F)c4)c(F)c3)cn2)cn1 [Compound P-0260, N-[6-chloro-5-(trifluoromethyl)-3-pyridyl]-2-[4-[2-[(1-ethylpyrazol-4-yl)amino]pyrimidin-5-yl]-2-fluoro-phenyl]acetamide]"
0.0001 to 10,0.0001 to 10,"O=C(Cc1ccc(-c2cnc(Nc3cnn(C4CC4)c3)nc2)cc1)Nc1cncc(C(F)(F)F)c1 [Compound P-0231, 2-[4-[2-[(1-cyclopropylpyrazol-4-yl)amino]pyrimidin-5-yl]phenyl]-N-[5-(trifluoromethyl)-3-pyridyl]acetamide]"
0.0001 to 10,0.0001 to 10,"CCn1cc(Nc2ncc(-c3ccc(CC(=O)Nc4ccc(C(F)(F)F)cn4)c(F)c3)cn2)cn1 [Compound P-0256, 2-[4-[2-[(1-ethylpyrazol-4-yl)amino]pyrimidin-5-yl]-2-fluoro-phenyl]-N-[5-(trifluoromethyl)-2-pyridyl]acetamide]"
0.0001 to 10,0.0001 to 10,"O=C(Cc1ccc(-c2cnc(Nc3cnn(C4CC4)c3)nc2)cc1F)Nc1cc(C(F)(F)F)ccn1 [Compound P-0244, 2-[4-[2-[(1-cyclopropylpyrazol-4-yl)amino]pyrimidin-5-yl]-2-fluoro-phenyl]-N-[4-(trifluoromethyl)-2-pyridyl]acetamide]"
0.0001 to 10,0.0001 to 10,"CCn1cc(Nc2ncc(-c3ccc(CC(=O)Nc4ccc(C(F)(F)F)cn4)cc3)cn2)cn1 [Compound P-0251, 2-[4-[2-[(1-ethylpyrazol-4-yl)amino]pyrimidin-5-yl]phenyl]-N-[5-(trifluoromethyl)-2-pyridyl]acetamide]"
0.0001 to 10,0.0001 to 10,"O=C(Cc1ccc(-c2cnc(Nc3cnn(C4CC4)c3)nc2)cc1F)Nc1cnc(Cl)c(C(F)(F)F)c1 [Compound P-0240, N-[6-chloro-5-(trifluoromethyl)-3-pyridyl]-2-[4-[2-[(1-cyclopropylpyrazol-4-yl)amino]pyrimidin-5-yl]-2-fluoro-phenyl]acetamide]"
0.0001 to 10,0.0001 to 10,"COc1ncc(NC(=O)Cc2ccc(-c3cnc4[nH]nc(C5CC5)c4c3)cc2)cc1C(F)(F)F [Compound P-0263, 2-[4-(3-cyclopropyl-1H-pyrazolo[3,4-b]pyridin-5-yl)phenyl]-N-[6-methoxy-5-(trifluoromethyl)-3-pyridyl]acetamide]"
0.0001 to 10,0.0001 to 10,"CCn1cc(Nc2ncc(-c3ccc(CC(=O)Nc4cnc(OC)c(C(F)(F)F)c4)c(F)c3)cn2)cn1 [Compound P-0259, 2-[4-[2-[(1-ethylpyrazol-4-yl)amino]pyrimidin-5-yl]-2-fluoro-phenyl]-N-[6-methoxy-5-(trifluoromethyl)-3-pyridyl]acetamide]"
0.0001 to 10,0.0001 to 10,"COc1ncc(NC(=O)Cc2ccc(-c3cnc4[nH]nc(Cl)c4c3)cc2)cc1C(F)(F)F [Compound P-0230, 2-[4-(3-chloro-1H-pyrazolo[3,4-b]pyridin-5-yl)phenyl]-N-[6-methoxy-5-(trifluoromethyl)-3-pyridyl]acetamide]"
0.0001 to 10,0.0001 to 10,"O=C(Cc1ccc(-c2cnc(Nc3cnn(C4CC4)c3)nc2)cc1)Nc1ccc(C(F)(F)F)cn1 [Compound P-0236, 2-[4-[2-[(1-cyclopropylpyrazol-4-yl)amino]pyrimidin-5-yl]phenyl]-N-[5-(trifluoromethyl)-2-pyridyl]acetamide]"
0.0001 to 10,0.0001 to 10,"CCn1cc(Nc2ncc(-c3ccc(CC(=O)Nc4ccc(C(F)(F)F)nc4)cc3)cn2)cn1 [Compound P-0252, 2-[4-[2-[(1-ethylpyrazol-4-yl)amino]pyrimidin-5-yl]phenyl]-N-[6-(trifluoromethyl)-3-pyridyl]acetamide]"
0.0001 to 10,0.0001 to 10,"Cc1ncc(NC(=O)Cc2ccc(-c3cnc(Nc4cnn(C)c4C)nc3)cc2)cc1C(F)(F)F [Compound P-0229, 2-[4-[2-[(1,5-dimethylpyrazol-4-yl)amino]pyrimidin-5-yl]phenyl]-N-[6-methyl-5-(trifluoromethyl)-3-pyridyl]acetamide]"
0.0001 to 10,0.0001 to 10,"COCCn1cc(Nc2ncc(-c3ccc(CC(=O)Nc4cnc(OC)c(C(F)(F)F)c4)cc3)cn2)cn1 [Compound P-0271, 2-[4-[2-[[1-(2-methoxyethyl)pyrazol-4-yl]amino]pyrimidin-5-yl]phenyl]-N-[6-methoxy-5-(trifluoromethyl)-3-pyridyl]acetamide]"
